Assay results as given in patent US9017938B2, “Use of microrna-199b-5p in medical and diagnostic field” (Advanced Accelerator Applications, priority 2009, dated 2015).

Legend:
Daoy cells [1] = experiment: Proliferation assay MTS, Daoy; format: cell-based, human; conditions: stable 199bMC1 and 199bSC1 clones vs empty-vector clone
Method: (§1) Cell proliferation was determined using the CellTiter96 AQueous Non-Radioactive Cell Proliferation Assay Kit (Promega Madison, Wis.). The cells were seeded into 96-well plates at a density of 1×10^3 cells/well in EMEM without or with FBS. After 0, 24, 48 and 72 h, MTS ([3-(4,5-dimethylthiazol-2-yl)-5-(3-carboxymethoxyphenyl)-2-(4-sulfophenyl)-2H-tetrazolium]) and PMS (phenazine methosulfate) were added to each well and after 4 h the absorbance of each well was measured at 490 nm (OD490) using Multilabel counter Victor^3 (Perkin Elmer). Each condition was performed with five wells and each experiment was repeated twice.
Proliferation assay (MTS) was made by kit CellTiter96 AQueous Non-Radioactive Cell Proliferation Assay (Promega) for 72 h. The cell lines daoy, MDA-231T and 4t1 treated with the control SNALP and with the miR 199b-5p were transferred in 96 multiwell at the concentration of 1000 and 3000 cells (daoy, MDA-231T and 4t1, respectively) in 100 μl of complete medium. For each experimental point were done 5 replicates. After 24, 48 e 72 h in each well was added 20 μl of 5× solution. After 4 h was read the absorbance of the formazane at 490 nm by Multilabel counter Victor3 (Perkin Elmer).

Daoy cells [2] = experiment: s.c. flank xenograft with bioluminescence imaging; format: in vivo, athymic nude/nude mice
Method: Stable Daoy cell clones were generated by transfecting a luciferase-expressing vector (the firefly luciferase gene cloned in the plentiV5 vector; Invitrogen) into the stable 199bSC1 clone or into the control empty-vector clone. Then 100,000 viable 199b-Luc1 and Ctl-Luc-4 cells were mixed with a 1:1 PBS:matrigel solution (BD Biosciences, San Jose, Calif.). Six-week-old female athymic mice were anesthetised using avertin (Sigma) as a 3% solution in tert-amyl alcohol (Fisher), at a dose of 3 mg per 10 g body weight. The mice were injected s.c. with a total volume of 0.1 mL of matrigel PBS cell suspension, into each flank. The mice were imaged after the implantation of the cells, with tumor growth monitored by weekly bioluminescence acquisitions (BLI) using an MS 3D Illumina Imaging System (Xenogen Corp. Alameda, Calif.). For the acquisitions, the mice were […] with 100 μL D-luciferin (15 mg/mL stock) per 10 g body weight, and imaged for 30 s, 10 min after luciferin injection; four acquisitions per mouse were made (ventral, dorsal and each flank). To quantify the bioluminescence, the integrated fluxes of photons (photons per s) within each area of interest were determined using the Living Images Software Package 3.0 (Xenogen-Caliper). The emission data from the start of tumor growth were collected for at least 6 weeks, and then were normalized to the bioluminescence on the injection day. Calliper measurements of tumor sizes were made weekly, along the long and short axes, and estimations of their volumes were made using the formula: width2×length×0.52.

D283MED cells = experiment: Proliferation assay MTS, D283MED; format: cell-based, human; conditions: transient transfection vs mock-transfected cells
Method: as §1

HES1 3′UTR = experiment: Luciferase reporter assay, HES1 3′UTR; format: cell-based, human; conditions: co-transfected miR-199b-5p expression vector
Method: To determine the activity of miR-199b-5p on repression of the luciferase-3′UTR fused constructs, the pREYZO-miR-199b-5p construct and the pRL-CMV-3′UTR target construct were co-transfected into HEK293 cells at a ratio of 10:1, using the Polyfect reagent (Qiagen) together with the pGL3 basic vector, in the absence and presence of 2-OM (400 nM). Luciferase activities were analysed using a Dual Luciferase Reporter Assay system (Promega, Madison, Wis.).
Pre-miR-199b was cloned in a pcDNA3 modified vector (pREYZO) (D'angelo et al., 2004) using EcoRI-XhoI restriction sites. HES1 and GSK-3˜target-binding sites (3′UTRs) were cloned in tandem in the 3′UTR of 20 the pRL-cytomegalovirus (CMV) vector (Promega, Madison, Wis.) downstream of the coding region of Renilla luciferase (RL) in the XbaI site The HES1 3′UTR (including the 199b binding site) was amplified from genomic DNA with the following primers: HES1—3′UTR as […] (SEQ ID NO: 96) and HES1—3′UTR as […] (SEQ ID NO: 97), and was cloned in the TK vector (Promega, Madison, Wis.) upstream of the firefly luciferase gene, in the XbaI sites. HES1 full-length cDNA was obtained with a standard RTPCR approach from a Daoy cDNA.
The site-directed mutagenesis of the miR-199b-5p binding site in HES1 3′UTR was generated according to the manufacturer protocol of the QuikChange site-directed mutagenesis kit (Stratagene, La Jolla, Calif.). […]

“miR-199b-5p: mature microRNA CCCAGUGUUUAGACUAUCUGUUC (SEQ ID NO:11); over-expressed from pre-miR-199b construct, e.g. stable Daoy clones 199bSC1, 199bMC1 (listed as RNA, chemistry not fully specified)” was tested, and the proliferation rate (Daoy cells [1]) was “markedly reduced proliferation rates”, the “tumor volumes, control flanks vs miR-199b-5p flanks” value (Daoy cells [2]; 199b-Luc1 vs Ctl-Luc-4 Daoy clones) was “significant difference in tumor volumes” and the “mice with statistically significant difference in bioluminescence signal between control and miR-199b-5p sides” value (Daoy cells [2]; after nine weeks) was “four out of the five”. For the same substance, the tumors detectable macroscopically (Daoy cells [2]; s.c. injection of Daoy cells over-expressing miR-199b-5p, nine weeks (control cells 5/5)) was 3/5, the proliferation (D283MED cells) was “decreased proliferation” and the “effect on luciferase reporter with HES1 3′UTR mutated in the miR-199b binding site” value (HES1 3′UTR) was “no effect”. The “reduction of luciferase activity from wild-type HES1 3′UTR reporter” value (HES1 3′UTR; HEK293 and Daoy cell lines) was 50%.
